Experimental data: ChEMBL document CHEMBL1128595, “Synthesis and biological activity of 7-alkylidenecephems” (J Med Chem, 1995)

Target: Beta-lactamase (Enterobacter cloacae) (UniProt P05364)
Experiment: The beta-lactamase inactivation partition ratio of the compound

## CC(=O)OCC1=C(C(=O)[O-])N2C(=O)C(=C=CC(C)(C)C)[C@H]2S(=O)(=O)C1.[Na+]
  Partition ratio: 12

## CC(=O)OCC1=C(C(=O)[O-])N2C(=O)/C(=C/c3ccccn3)[C@H]2S(=O)(=O)C1.[Na+]
  Partition ratio: 20
